The values that follow are results of earlier work, collected in patent US10073089B2 (priority 2011, dated 2018).

The data set relates to torpedo electrocyte membranes. The conditions noted are these: read-out: Sensitivity (concentration in nM).

As to 13-desmethyl spirolide C [13-SPX C], the IC50 is 108 nM. For the substance gymnodimine A [GYM A], the IC50 is 391 nM.
